According to PubChem BioAssay AID330 (DTP/NCI, 2004):
Several values for one entry are separate records, joined by “and”; a condition that tells them apart may be missing. Equal values may be shown once. Toxic doses and inconclusive results are not listed.

Test system: P388 leukemia ip, CD2F1 mice, survival T/C
Experiment: NCI In Vivo Anticancer Drug Screen. Data for tumor model P388 Leukemia (intraperitoneal) in CD2F1 (CDF1) mice
Conditions: endpoint: median survival time, higher = longer survival
How it was run: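 Mice carrying the transplanted tumor received test compound or vehicle. Survival was recorded in each group, and the value is the treated-group measurement divided by that of the vehicle-treated control group.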

## COc1cccc2c1C(=O)c1c(O)c3c(c(O)c1C2=O)CC(O)(C(=O)CO)CC3OC1CC(N)C(O)C(C)O1 (configuration not stated)
dose: 0.03 mg/kg/injection, schedule: Q04DX003 (ip), vehicle: other
  T/C: 104 % of control
dose: 0.05 mg/kg/injection, schedule: Q04DX003 (ip), vehicle: other
  T/C: 104 % of control
dose: 0.05 mg/kg/injection, schedule: Q04DX003 (ip), vehicle: saline
  T/C: 110 % of control
dose: 0.08 mg/kg/injection, schedule: Q04DX003 (ip), vehicle: other
  T/C: 115 % of control
dose: 0.1 mg/kg/injection, schedule: Q04DX003 (ip), vehicle: other
  T/C: 98 % of control
dose: 0.12 mg/kg/injection, schedule: Q04DX003 (ip), vehicle: other
  T/C: 122 % of control
dose: 0.3 mg/kg/injection, schedule: Q04DX003 (ip), vehicle: other
  T/C: 112 % of control
dose: 0.38 mg/kg/injection, schedule: Q01DX009 (ip), vehicle: water
  T/C: 150 % of control
dose: 0.5 mg/kg/injection, schedule: Q04DX003 (ip), vehicle: other
  T/C: 100 % of control
dose: 0.6 mg/kg/injection, schedule: Q04DX003 (ip), vehicle: saline
  T/C: 154 % of control
dose: 0.75 mg/kg/injection, schedule: Q01DX009 (ip), vehicle: water
  T/C: 159 % of control
dose: 1.0 mg/kg/injection, schedule: Q04DX003 (ip), vehicle: other
  T/C: 100 % of control
dose: 1.0 mg/kg/injection, schedule: Q04DX003 (ip), vehicle: saline
  T/C: 110 % of control and 106 % of control
dose: 1.13 mg/kg/injection, schedule: Q04DX003 (ip), vehicle: water
  T/C: 120 % of control
dose: 1.3 mg/kg/injection, schedule: Q04DX003 (ip), vehicle: other
  T/C: 152 % of control
dose: 1.3 mg/kg/injection, schedule: Q04DX003 (ip), vehicle: saline
  T/C: 156 % of control
dose: 1.5 mg/kg/injection, schedule: Q01DX009 (ip), vehicle: water
  T/C: 165 % of control
dose: 1.56 mg/kg/injection, schedule: Q04DX003 (ip), vehicle: saline
  T/C: 163 % of control
dose: 1.9 mg/kg/injection, schedule: Q04DX003 (ip), vehicle: other
  T/C: 153 % of control
dose: 1.9 mg/kg/injection, schedule: Q04DX003 (ip), vehicle: saline
  T/C: 156 % of control
dose: 2.0 mg/kg/injection, schedule: Q04DX003 (ip), vehicle: other
  T/C: 97 % of control
dose: 2.0 mg/kg/injection, schedule: Q04DX003 (ip), vehicle: saline
  T/C: 113 % of control and 116 % of control
dose: 2.25 mg/kg/injection, schedule: Q04DX003 (ip), vehicle: water
  T/C: 121 % of control
dose: 2.8 mg/kg/injection, schedule: Q04DX003 (ip), vehicle: other
  T/C: 169 % of control
dose: 2.8 mg/kg/injection, schedule: Q04DX003 (ip), vehicle: saline
  T/C: 182 % of control
dose: 2.9 mg/kg/injection, schedule: Q01DX009 (ip), vehicle: saline
  T/C: 104 % of control
dose: 3.0 mg/kg/injection, schedule: Q01DX009 (ip), vehicle: water
  T/C: 158 % of control
dose: 3.0 mg/kg/injection, schedule: Q04DX003 (ip), vehicle: water
  T/C: 114 % of control
dose: 3.12 mg/kg/injection, schedule: Q04DX003 (ip), vehicle: saline
  T/C: 170 % of control
dose: 3.13 mg/kg/injection, schedule: Q01DX009 (ip), vehicle: water
  T/C: 163 % of control
dose: 3.13 mg/kg/injection, schedule: Q04DX003 (ip), vehicle: other
  T/C: 118 % of control
dose: 4.0 mg/kg/injection, schedule: Q04DX003 (ip), vehicle: other
  T/C: 115 % of control
dose: 4.0 mg/kg/injection, schedule: Q04DX003 (ip), vehicle: saline
  T/C: 119 % of control
dose: 4.2 mg/kg/injection, schedule: Q04DX003 (ip), vehicle: other
  T/C: 179 % of control
dose: 4.2 mg/kg/injection, schedule: Q04DX003 (ip), vehicle: saline
  T/C: 180 % of control
dose: 5.8 mg/kg/injection, schedule: Q01DX009 (ip), vehicle: saline
  T/C: 124 % of control
dose: 6.0 mg/kg/injection, schedule: Q01DX009 (ip), vehicle: water
  T/C: 183 % of control
dose: 6.25 mg/kg/injection, schedule: Q01DX009 (ip), vehicle: water
  T/C: 200 % of control
dose: 6.25 mg/kg/injection, schedule: Q04DX003 (ip), vehicle: other
  T/C: 120 % of control
dose: 6.25 mg/kg/injection, schedule: Q04DX003 (ip), vehicle: saline
  T/C: 170 % of control
dose: 6.3 mg/kg/injection, schedule: Q04DX003 (ip), vehicle: other
  T/C: 179 % of control
dose: 6.3 mg/kg/injection, schedule: Q04DX003 (ip), vehicle: saline
  T/C: 168 % of control
dose: 7.5 mg/kg/injection, schedule: Q04DX003 (ip), vehicle: clinical formulation
  T/C: 161 % of control
dose: 8.0 mg/kg/injection, schedule: Q04DX003 (ip), vehicle: saline
  T/C: 109 % of control
dose: 9.0 mg/kg/injection, schedule: Q04DX003 (ip), vehicle: water
  T/C: 121 % of control
dose: 9.5 mg/kg/injection, schedule: Q04DX003 (ip), vehicle: other
  T/C: 179 % of control
dose: 9.5 mg/kg/injection, schedule: Q04DX003 (ip), vehicle: saline
  T/C: 208 % of control
dose: 10.0 mg/kg/injection, schedule: Q04DX003 (ip), vehicle: water
  T/C: 112 % of control
dose: 12.0 mg/kg/injection, schedule: Q01DX009 (ip), vehicle: water
  T/C: 204 % of control
dose: 12.0 mg/kg/injection, schedule: Q04DX003 (ip), vehicle: water
  T/C: 116 % of control
dose: 12.5 mg/kg/injection, schedule: Q01DX009 (ip), vehicle: water
  T/C: 229 % of control
dose: 14.2 mg/kg/injection, schedule: Q04DX003 (ip), vehicle: other
  T/C: 198 % of control
dose: 14.2 mg/kg/injection, schedule: Q04DX003 (ip), vehicle: saline
  T/C: 193 % of control
dose: 15.0 mg/kg/injection, schedule: Q04DX003 (ip), vehicle: clinical formulation
  T/C: 152 % of control
dose: 16.0 mg/kg/injection, schedule: Q04DX003 (ip), vehicle: saline
  T/C: 119 % of control
dose: 21.3 mg/kg/injection, schedule: Q04DX003 (ip), vehicle: other
  T/C: 207 % of control
dose: 21.3 mg/kg/injection, schedule: Q04DX003 (ip), vehicle: saline
  T/C: 86 % of control
dose: 22.5 mg/kg/injection, schedule: Q04DX003 (ip), vehicle: water
  T/C: 109 % of control and 115 % of control
dose: 23.4 mg/kg/injection, schedule: Q01DX009 (ip), vehicle: saline
  T/C: 123 % of control and 217 % of control
dose: 25.0 mg/kg/injection, schedule: Q01DX009 (ip), vehicle: water
  T/C: 220 % of control
dose: 25.0 mg/kg/injection, schedule: Q04DX003 (ip), vehicle: saline
  T/C: 98 % of control
dose: 32.0 mg/kg/injection, schedule: Q04DX003 (ip), vehicle: other
  T/C: 160 % of control
dose: 32.0 mg/kg/injection, schedule: Q04DX003 (ip), vehicle: saline
  T/C: 172 % of control
dose: 36.0 mg/kg/injection, schedule: Q04DX003 (ip), vehicle: water
  T/C: 163 % of control
dose: 44.0 mg/kg/injection, schedule: Q04DX003 (ip), vehicle: water
  T/C: 110 % of control
dose: 45.0 mg/kg/injection, schedule: Q04DX003 (ip), vehicle: water
  T/C: 124 % of control
dose: 48.0 mg/kg/injection, schedule: Q04DX003 (ip), vehicle: other
  T/C: 87 % of control
dose: 48.0 mg/kg/injection, schedule: Q04DX003 (ip), vehicle: water
  T/C: 175 % of control and 294 % of control
dose: 50.0 mg/kg/injection, schedule: Q01DX009 (ip), vehicle: water
  T/C: 117 % of control
dose: 50.0 mg/kg/injection, schedule: Q04DX003 (ip), vehicle: other
  T/C: 161 % of control
dose: 64.0 mg/kg/injection, schedule: Q04DX003 (ip), vehicle: saline
  T/C: 167 % of control and 153 % of control
dose: 72.0 mg/kg/injection, schedule: Q04DX003 (ip), vehicle: other
  T/C: 93 % of control
dose: 72.0 mg/kg/injection, schedule: Q04DX003 (ip), vehicle: water
  T/C: 196 % of control
dose: 80.0 mg/kg/injection, schedule: Q04DX003 (ip), vehicle: water
  T/C: 118 % of control
dose: 90.0 mg/kg/injection, schedule: Q04DX003 (ip), vehicle: water
  T/C: 159 % of control and 174 % of control
dose: 108.0 mg/kg/injection, schedule: Q04DX003 (ip), vehicle: other
  T/C: 88 % of control
dose: 108.0 mg/kg/injection, schedule: Q04DX003 (ip), vehicle: water
  T/C: 163 % of control
dose: 128.0 mg/kg/injection, schedule: Q04DX003 (ip), vehicle: other
  T/C: 182 % of control
dose: 128.0 mg/kg/injection, schedule: Q04DX003 (ip), vehicle: saline
  T/C: 204 % of control and 184 % of control
dose: 160.0 mg/kg/injection, schedule: Q04DX003 (ip), vehicle: water
  T/C: 95 % of control
dose: 180.0 mg/kg/injection, schedule: Q04DX003 (ip), vehicle: water
  T/C: 168 % of control
dose: 256.0 mg/kg/injection, schedule: Q04DX003 (ip), vehicle: other
  T/C: 175 % of control
dose: 256.0 mg/kg/injection, schedule: Q04DX003 (ip), vehicle: saline
  T/C: 110 % of control and 213 % of control
dose: 267.0 mg/kg/injection, schedule: Q04DX003 (ip), vehicle: water
  T/C: 109 % of control
dose: 360.0 mg/kg/injection, schedule: Q04DX003 (ip), vehicle: water
  T/C: 97 % of control
dose: 400.0 mg/kg/injection, schedule: Q04DX003 (ip), vehicle: water
  T/C: 99 % of control
dose: 512.0 mg/kg/injection, schedule: Q04DX003 (ip), vehicle: saline
  T/C: 90 % of control
